Results: PMC4033659 (Journal of Medicinal Chemistry, 2014)

test: In vivo PK in rats after ip administration; details: rat, ip 10 mg/kg, at Tmax 30 min

Structure (SMILES) | plasma (maximum concentration) | brain (maximum concentration)
COc1ccc(C(=O)O)cc1OCCCCOc1ccc(C(=O)CC(C)(C)C)c(O)c1C [Compound 72, 3-(4-(4-(3,3-Dimethylbutanoyl)-3-hydroxy-2-methylphenoxy)butoxy)-4-methoxybenzoic Acid] | 2.44 ± 2.19 µM | –
COc1cc(C(=O)O)ccc1OCCCCOc1ccc(C(=O)CC(C)C)c(O)c1C [Compound 44, 4-{4-[3-Hydroxy-2-methyl-4-(3-methylbutanoyl)phenoxy]butoxy}-3-methoxybenzoic Acid] | 10.57 ± 2.52 µM | 0.23 ± 0.10 µM
Cc1c(OCCCCOc2ccc(F)c(C(=O)O)c2)ccc(C(=O)C(C)C)c1O [Compound 65, 2-Fluoro-5-(4-(3-hydroxy-4-isobutyryl-2-methylphenoxy)butoxy)benzoic Acid] | 5.44 ± 2.92 µM | –
CCCC(=O)c1ccc(OCCCCOc2cc(C(=O)O)ccc2OC)c(C)c1O [Compound 68, 3-(4-(4-Butyryl-3-hydroxy-2-methylphenoxy)butoxy)-4-methoxybenzoic Acid] | 2.18 ± 0.58 µM | –
Cc1c(OCCCCOc2ccc(F)c(C(=O)O)c2)ccc(C(=O)CC(C)(C)C)c1O [Compound 75, 5-(4-(4-(3,3-Dimethylbutanoyl)-3-hydroxy-2-methylphenoxy)butoxy)-2-fluorobenzoic Acid] | 6.52 ± 0.54 µM | 0.22 ± 0.04 µM
